Measurements from article PMC6547681 (Nature Communications, 2019).
Several values for one entry are separate records, joined by “and”; a condition that tells them apart may be missing. Equal values may be shown once. Read-outs that look alike come from different tables or passages of the source.

Test system: BCL-2 G101V
Experiment: Steady-state competition SPR against immobilised BIMBH3 peptide, BCL-2 G101V
Format: binding, human
Conditions: for Ki: BCL-2 G101V
Experimental: SPR experiments were performed as previously described. […] The lowest concentrations used in direct binding experiments were 1 nM for BIAcore 4000 and 0.1 nM for BIAcore S200 instruments, concentrations below these were below the sensitivity thresholds for the instruments. […] Direct binding experiments were fitted to a 1:1 binding site kinetic model, fitting on and off rates, in BIAevaluation software. For competition experiments steady-state responses were determined in BIAevaluation software according to the software defaults in affinity evaluation mode averaging responses for 5 sec. […] All affinity measurements were performed in at least two independent experiments using independent protein preparations.

## O=C(c1cc(-c2cc3c(cc2C(=O)N2Cc4ccccc4C[C@H]2CN2CCOCC2)OCO3)n2c1CCCC2)N(c1ccccc1)c1ccc(O)cc1 [S55746]
S55746 concentration 40, BCL-2 concentration 60 nM, independent experiment 3
  Raw data values in Figure 3g (SPR response): 48.7177
S55746 concentration 40, BCL-2 concentration 70 nM, independent experiment 1
  Raw data values in Figure 3g (SPR response): 85.9498
S55746 concentration 40, BCL-2 concentration 70 nM, independent experiment 2
  Raw data values in Figure 3g (SPR response): 301.246
S55746 concentration 40, BCL-2 concentration 70 nM, independent experiment 3
  Raw data values in Figure 3g (SPR response): 49.6061
S55746 concentration 40, BCL-2 concentration 80 nM, independent experiment 1
  Raw data values in Figure 3g (SPR response): 87.455
S55746 concentration 40, BCL-2 concentration 80 nM, independent experiment 2
  Raw data values in Figure 3g (SPR response): 307.892
S55746 concentration 40, BCL-2 concentration 80 nM, independent experiment 3
  Raw data values in Figure 3g (SPR response): 50.2962
S55746 concentration 40, BCL-2 concentration 100 nM, independent experiment 1
  Raw data values in Figure 3g (SPR response): 89.2588
S55746 concentration 40, BCL-2 concentration 100 nM, independent experiment 2
  Raw data values in Figure 3g (SPR response): 318.485
S55746 concentration 40, BCL-2 concentration 100 nM, independent experiment 3
  Raw data values in Figure 3g (SPR response): 51.3212
S55746 concentration 40, BCL-2 concentration 150 nM, independent experiment 1
  Raw data values in Figure 3g (SPR response): 91.8217
S55746 concentration 40, BCL-2 concentration 150 nM, independent experiment 2
  Raw data values in Figure 3g (SPR response): 334.001
S55746 concentration 40, BCL-2 concentration 150 nM, independent experiment 3
  Raw data values in Figure 3g (SPR response): 52.4759
S55746 concentration 40, BCL-2 concentration 200 nM, independent experiment 1
  Raw data values in Figure 3g (SPR response): 93.5739
S55746 concentration 40, BCL-2 concentration 250 nM, independent experiment 2
  Raw data values in Figure 3g (SPR response): 347.773
S55746 concentration 40, BCL-2 concentration 250 nM, independent experiment 3
  Raw data values in Figure 3g (SPR response): 53.5471
S55746 concentration 60, BCL-2 concentration 10 nM, independent experiment 1
  Raw data values in Figure 3g (SPR response): 47.4597
S55746 concentration 60, BCL-2 concentration 10 nM, independent experiment 2
  Raw data values in Figure 3g (SPR response): 98.8052
S55746 concentration 60, BCL-2 concentration 20 nM, independent experiment 1
  Raw data values in Figure 3g (SPR response): 62.0582
S55746 concentration 60, BCL-2 concentration 20 nM, independent experiment 2
  Raw data values in Figure 3g (SPR response): 156.985
S55746 concentration 60, BCL-2 concentration 30 nM, independent experiment 1
  Raw data values in Figure 3g (SPR response): 69.7854
S55746 concentration 60, BCL-2 concentration 30 nM, independent experiment 2
  Raw data values in Figure 3g (SPR response): 196.195
S55746 concentration 60, BCL-2 concentration 40 nM, independent experiment 1
  Raw data values in Figure 3g (SPR response): 76.161
S55746 concentration 60, BCL-2 concentration 40 nM, independent experiment 2
  Raw data values in Figure 3g (SPR response): 224.521
S55746 concentration 60, BCL-2 concentration 50 nM, independent experiment 1
  Raw data values in Figure 3g (SPR response): 79.3118
S55746 concentration 60, BCL-2 concentration 50 nM, independent experiment 2
  Raw data values in Figure 3g (SPR response): 244.821
S55746 concentration 60, BCL-2 concentration 60 nM, independent experiment 1
  Raw data values in Figure 3g (SPR response): 82.6237
S55746 concentration 60, BCL-2 concentration 60 nM, independent experiment 2
  Raw data values in Figure 3g (SPR response): 261.933
S55746 concentration 60, BCL-2 concentration 70 nM, independent experiment 1
  Raw data values in Figure 3g (SPR response): 84.8163
S55746 concentration 60, BCL-2 concentration 70 nM, independent experiment 2
  Raw data values in Figure 3g (SPR response): 275.69
S55746 concentration 60, BCL-2 concentration 80 nM, independent experiment 1
  Raw data values in Figure 3g (SPR response): 85.9361
S55746 concentration 60, BCL-2 concentration 80 nM, independent experiment 2
  Raw data values in Figure 3g (SPR response): 286.55
S55746 concentration 60, BCL-2 concentration 100 nM, independent experiment 1
  Raw data values in Figure 3g (SPR response): 88.8819
S55746 concentration 60, BCL-2 concentration 100 nM, independent experiment 2
  Raw data values in Figure 3g (SPR response): 303.493
S55746 concentration 60, BCL-2 concentration 150 nM, independent experiment 1
  Raw data values in Figure 3g (SPR response): 91.2891
S55746 concentration 60, BCL-2 concentration 150 nM, independent experiment 2
  Raw data values in Figure 3g (SPR response): 325.735
S55746 concentration 60, BCL-2 concentration 200 nM, independent experiment 1
  Raw data values in Figure 3g (SPR response): 93.4484
S55746 concentration 60, BCL-2 concentration 250 nM, independent experiment 2
  Raw data values in Figure 3g (SPR response): 343.304
S55746 concentration 80, BCL-2 concentration 10 nM, independent experiment 3
  Raw data values in Figure 3g (SPR response): 22.8907
S55746 concentration 80, BCL-2 concentration 20 nM, independent experiment 3
  Raw data values in Figure 3g (SPR response): 32.1933
S55746 concentration 80, BCL-2 concentration 30 nM, independent experiment 3
  Raw data values in Figure 3g (SPR response): 37.5379
S55746 concentration 80, BCL-2 concentration 40 nM, independent experiment 3
  Raw data values in Figure 3g (SPR response): 41.1001
S55746 concentration 80, BCL-2 concentration 50 nM, independent experiment 3
  Raw data values in Figure 3g (SPR response): 43.4737
S55746 concentration 80, BCL-2 concentration 60 nM, independent experiment 3
  Raw data values in Figure 3g (SPR response): 45.424
S55746 concentration 80, BCL-2 concentration 70 nM, independent experiment 3
  Raw data values in Figure 3g (SPR response): 46.908
S55746 concentration 80, BCL-2 concentration 80 nM, independent experiment 3
  Raw data values in Figure 3g (SPR response): 48.0972
S55746 concentration 80, BCL-2 concentration 100 nM, independent experiment 3
  Raw data values in Figure 3g (SPR response): 49.7546
S55746 concentration 80, BCL-2 concentration 150 nM, independent experiment 3
  Raw data values in Figure 3g (SPR response): 51.7109
S55746 concentration 80, BCL-2 concentration 250 nM, independent experiment 3
  Raw data values in Figure 3g (SPR response): 53.091
read-out: S55746 KI (mean), competition vs BIMBH3 SPR surface, mean ± SD, n ≥ 2
  Ki: 36 nM and 35.7 nM
read-out: S55746 KI, single independent experiments, independent experiments 1-3
  Ki: 28.4 nM and 49.8 nM and 29 nM
